Source: ChEMBL document CHEMBL4308841, “Synthesis, in vitro antiproliferative activity, and kinase inhibitory effects of pyrazole-containing diarylureas and diarylamides” (Eur J Med Chem, 2018)

How the values were obtained:
[1] = test system: NCI-H23; experiment: Growth inhibition of human NCI-H23 cells incubated for 48 hrs by sulforhodamine B assay; format: functional, cell-based; details: NCI-H23, 48 h
[2] = test system: MDA-MB-468; experiment: Growth inhibition of human MDA-MB-468 cells assessed as cell growth at 1 uM incubated for 48 hrs by sulforhodamine B assay relative to control; format: functional; details: MDA-MB-468, 48 h, read-out: Activity
[3] = test system: MOLT-4; experiment: Growth inhibition of human MOLT4 cells assessed as cell growth at 0.01 uM incubated for 48 hrs by sulforhodamine B assay relative to control; format: functional; details: MOLT-4, 48 h, read-out: Activity
[4] = test system: SN12C; experiment: Growth inhibition of human SN12C cells assessed as cell growth at 100 uM incubated for 48 hrs by sulforhodamine B assay relative to control; format: functional; details: read-out: Activity
[5] = test system: Malme-3M; experiment: Growth inhibition of human MALME-3M cells assessed as cell growth at 0.01 uM incubated for 48 hrs by sulforhodamine B assay relative to control; format: functional; details: read-out: Activity
[6] = test system: NCI-H460; experiment: Growth inhibition of human NCI-H460 cells assessed as cell growth at 100 uM incubated for 48 hrs by sulforhodamine B assay relative to control; format: functional; details: NCI-H460, 48 h, read-out: Activity
[7] = test system: SNB-19; experiment: Growth inhibition of human SNB19 cells assessed as cell growth at 100 uM incubated for 48 hrs by sulforhodamine B assay relative to control; format: functional; details: SNB-19, 48 h, read-out: Activity
[8] = test system: M14; experiment: Growth inhibition of human M14 cells assessed as cell growth at 0.1 uM incubated for 48 hrs by sulforhodamine B assay relative to control; format: functional; details: M14, 48 h, read-out: Activity
[9] = test system: OVCAR-4; experiment: Growth inhibition of human OVCAR4 cells assessed as cell growth at 100 uM incubated for 48 hrs by sulforhodamine B assay relative to control; format: functional; details: OVCAR-4, 48 h, read-out: Activity
[10] = test system: OVCAR-3; experiment: Growth inhibition of human OVCAR3 cells assessed as cell growth at 0.01 uM incubated for 48 hrs by sulforhodamine B assay relative to control; format: functional; details: OVCAR-3, 48 h, read-out: Activity
[11] = test system: SK-MEL-5; experiment: Growth inhibition of human SK-MEL-5 cells assessed as cell growth at 100 uM incubated for 48 hrs by sulforhodamine B assay relative to control; format: functional; details: SK-MEL-5, 48 h, read-out: Activity
[12] = test system: MDA-MB-231; experiment: Growth inhibition of human MDA-MB-231 cells assessed as cell growth at 1 uM incubated for 48 hrs by sulforhodamine B assay relative to control; format: functional; details: MDA-MB-231, 48 h, read-out: Activity
[13] = test system: HCT-15; experiment: Growth inhibition of human HCT15 cells assessed as cell growth at 1 uM incubated for 48 hrs by sulforhodamine B assay relative to control; format: functional; details: HCT-15, 48 h, read-out: Activity
[14] = test system: NCI-H460; experiment: Growth inhibition of human NCI-H460 cells assessed as cell growth at 0.01 uM incubated for 48 hrs by sulforhodamine B assay relative to control; format: functional; details: NCI-H460, 48 h, read-out: Activity
[15] = test system: HT-29; experiment: Growth inhibition of human HT-29 cells assessed as cell growth at 0.1 uM incubated for 48 hrs by sulforhodamine B assay relative to control; format: functional; details: HT-29, 48 h, read-out: Activity
[16] = test system: HCT-116; experiment: Growth inhibition of human HCT116 cells assessed as cell growth at 1 uM incubated for 48 hrs by sulforhodamine B assay relative to control; format: functional; details: HCT-116, 48 h, read-out: Activity
[17] = test system: SK-MEL-2; experiment: Growth inhibition of human SK-MEL-2 cells assessed as cell growth at 1 uM incubated for 48 hrs by sulforhodamine B assay relative to control; format: functional; details: SK-MEL-2, 48 h, read-out: Activity
[18] = test system: HCT-116; experiment: Growth inhibition of human HCT116 cells assessed as cell growth at 0.01 uM incubated for 48 hrs by sulforhodamine B assay relative to control; format: functional; details: HCT-116, 48 h, read-out: Activity
[19] = test system: MCF7; experiment: Growth inhibition of human MCF7 cells assessed as cell growth at 100 uM incubated for 48 hrs by sulforhodamine B assay relative to control; format: functional; details: MCF7, 48 h, read-out: Activity
[20] = test system: NCI/ADR-RES; experiment: Growth inhibition of human NCI/ADR-RES cells incubated for 48 hrs by sulforhodamine B assay; format: functional, cell-based
[21] = test system: IGROV-1; experiment: Growth inhibition of human IGROV1 cells assessed as cell growth at 1 uM incubated for 48 hrs by sulforhodamine B assay relative to control; format: functional; details: IGROV-1, 48 h, read-out: Activity
[22] = test system: NCI-H322M; experiment: Growth inhibition of human NCI-H322M cells assessed as cell growth at 1 uM incubated for 48 hrs by sulforhodamine B assay relative to control; format: functional; details: read-out: Activity
[23] = test system: SK-MEL-28; experiment: Growth inhibition of human SK-MEL-28 cells assessed as cell growth at 1 uM incubated for 48 hrs by sulforhodamine B assay relative to control; format: functional; details: SK-MEL-28, 48 h, read-out: Activity
[24] = test system: SR; experiment: Growth inhibition of human SR cells assessed as cell growth at 1 uM incubated for 48 hrs by sulforhodamine B assay relative to control; format: functional; details: read-out: Activity
[25] = test system: PC-3; experiment: Growth inhibition of human PC3 cells incubated for 48 hrs by sulforhodamine B assay; format: functional, cell-based; details: PC-3, 48 h
[26] = test system: COLO 205; experiment: Growth inhibition of human COLO205 cells assessed as cell growth at 1 uM incubated for 48 hrs by sulforhodamine B assay relative to control; format: functional; details: COLO 205, 48 h, read-out: Activity
[27] = test system: A549; experiment: Growth inhibition of human A549/ATCC cells incubated for 48 hrs by sulforhodamine B assay; format: functional, cell-based; details: A549, 48 h
[28] = test system: HCT-116; experiment: Growth inhibition of human HCT116 cells assessed as cell growth at 100 uM incubated for 48 hrs by sulforhodamine B assay relative to control; format: functional; details: HCT-116, 48 h, read-out: Activity
[29] = test system: MDA-MB-435; experiment: Growth inhibition of human MDA-MB-435 cells assessed as cell growth at 1 uM incubated for 48 hrs by sulforhodamine B assay relative to control; format: functional; details: MDA-MB-435, 48 h, read-out: Activity
[30] = test system: NCI-H460; experiment: Growth inhibition of human NCI-H460 cells assessed as cell growth at 0.1 uM incubated for 48 hrs by sulforhodamine B assay relative to control; format: functional; details: NCI-H460, 48 h, read-out: Activity
[31] = test system: 786-0; experiment: Growth inhibition of human 786-0 cells assessed as cell growth at 1 uM incubated for 48 hrs by sulforhodamine B assay relative to control; format: functional; details: 786-0, 48 h, read-out: Activity
[32] = read-out: LC50 (the source's name)
[33] = read-out: pLC50 (the source's name) (converted)

SMILES: O=C(Nc1cccc(-n2cc(-c3ccncc3)c(-c3cc(O)cc(Cl)c3)n2)c1)Nc1ccc(Cl)c(Cl)c1
- GI50 ([1]; read-out: GI50): 2.41 µM
- LC50 ([1]; read-out: LC50): > 100 µM
- TGI ([1]; read-out: TGI): 62.9 µM
- GI50 ([1]; read-out: pGI50 (converted)): 2.4 µM
- LC50 ([1]; read-out: pLC50 (converted)): > 100 µM
- TGI ([1]; read-out: pTGI (converted)): 5.01 µM
- growth at 1 µM [2]: 59%
- growth at 0.01 µM [3]: 93%
- growth at 100 µM [4]: -15%
- growth at 0.01 µM [5]: 57%
- growth at 100 µM [6]: -48%
- growth at 100 µM [7]: -26%
- growth at 0.1 µM [8]: 93%
- growth at 100 µM [9]: 9%
- growth at 0.01 µM [10]: 103%
- growth at 100 µM [11]: -78%
- growth at 1 µM [12]: 50%
- growth at 1 µM [13]: 75%
- growth at 0.01 µM [14]: 102%
- growth at 0.1 µM [15]: 97%
- growth at 1 µM [16]: 82%
- growth at 1 µM [17]: 56%
- growth at 0.01 µM [18]: 101%
- growth at 100 µM [19]: -2%
- GI50 ([20]; read-out: GI50): 3.21 µM
- CC50 [20, 32]: > 100 µM
- TGI ([20]; read-out: TGI): > 100 µM
- GI50 ([20]; read-out: pGI50 (converted)): 3.24 µM
- CC50 [20, 33]: > 100 µM
- TGI ([20]; read-out: pTGI (converted)): > 100 µM
- growth at 1 µM [21]: 95%
- growth at 1 µM [22]: 59%
- growth at 1 µM [23]: 90%
- growth at 1 µM [24]: 62%
- IC50 [25]: 1.69 µM
- GI50 ([25]; read-out: GI50): 1.59 µM
- CC50 [25, 32]: > 100 µM
- TGI ([25]; read-out: TGI): 58.8 µM
- GI50 ([25]; read-out: pGI50 (converted)): 1.7 µM
- CC50 [25, 33]: > 100 µM
- TGI ([25]; read-out: pTGI (converted)): 5.62 µM
- growth at 1 µM [26]: 101%
- IC50 [27]: 1.96 µM
- GI50 ([27]; read-out: GI50): 1.96 µM
- CC50 [27, 32]: > 100 µM
- TGI ([27]; read-out: TGI): 75.4 µM
- GI50 ([27]; read-out: pGI50 (converted)): 1.95 µM
- CC50 [27, 33]: > 100 µM
- TGI ([27]; read-out: pTGI (converted)): 7.59 µM
- growth at 100 µM [28]: -61%
- growth at 1 µM [29]: 79%
- growth at 0.1 µM [30]: 97%
- growth at 1 µM [31]: 71%

SMILES: O=C(Nc1cccc(-n2cc(-c3ccncc3)c(-c3cc(O)cc(Cl)c3)n2)c1)c1cc(C(F)(F)F)cc(C(F)(F)F)c1
- GI50 ([1]; read-out: GI50): 4.18 µM
- LC50 ([1]; read-out: LC50): > 100 µM
- TGI ([1]; read-out: TGI): 45.5 µM
- GI50 ([1]; read-out: pGI50 (converted)): 4.17 µM
- LC50 ([1]; read-out: pLC50 (converted)): > 100 µM
- TGI ([1]; read-out: pTGI (converted)): 46.8 µM
- growth at 1 µM [2]: 52%
- growth at 0.01 µM [3]: 99%
- growth at 100 µM [4]: 17%
- growth at 0.01 µM [5]: 97%
- growth at 100 µM [6]: 1%
- growth at 100 µM [7]: 34%
- growth at 0.1 µM [8]: 93%
- growth at 100 µM [9]: 15%
- growth at 0.01 µM [10]: 102%
- growth at 100 µM [11]: -45%
- growth at 1 µM [12]: 70%
- growth at 1 µM [13]: 79%
- growth at 0.01 µM [14]: 101%
- growth at 0.1 µM [15]: 91%
- growth at 1 µM [16]: 59%
- growth at 1 µM [17]: 106%
- growth at 0.01 µM [18]: 102%
- GI50 ([20]; read-out: GI50): 4.58 µM
- CC50 [20, 32]: > 100 µM
- TGI ([20]; read-out: TGI): > 100 µM
- GI50 ([20]; read-out: pGI50 (converted)): 4.57 µM
- CC50 [20, 33]: > 100 µM
- TGI ([20]; read-out: pTGI (converted)): > 100 µM
- growth at 1 µM [21]: 103%
- growth at 1 µM [22]: 90%
- growth at 1 µM [23]: 55%
- growth at 1 µM [24]: 71%
- IC50 [25]: 2.28 µM
- GI50 ([25]; read-out: GI50): 2.28 µM
- CC50 [25, 32]: > 100 µM
- TGI ([25]; read-out: TGI): 22.5 µM
- GI50 ([25]; read-out: pGI50 (converted)): 2.29 µM
- CC50 [25, 33]: > 100 µM
- TGI ([25]; read-out: pTGI (converted)): 28.2 µM
- growth at 1 µM [26]: 97%
- IC50 [27]: 2.62 µM
- GI50 ([27]; read-out: GI50): 2.52 µM
- CC50 [27, 32]: > 100 µM
- TGI ([27]; read-out: TGI): > 100 µM
- GI50 ([27]; read-out: pGI50 (converted)): 2.63 µM
- CC50 [27, 33]: > 100 µM
- TGI ([27]; read-out: pTGI (converted)): > 100 µM
- growth at 100 µM [28]: 5%
- growth at 1 µM [29]: 88%
- growth at 0.1 µM [30]: 100%
- growth at 1 µM [31]: 56%
